Test results reported in ChEMBL document CHEMBL2311376, “Synthesis and antibacterial evaluation of a novel tricyclic oxaborole-fused fluoroquinolone” (2013).
Converted amounts (≈) assume the structure as drawn.

Key:
Format in all cases: functional
Staphylococcus aureus = experiment: Antimicrobial activity against Staphylococcus aureus ATCC 29213 by microbroth dilution assay
Escherichia coli [1] = experiment: Antimicrobial activity against Escherichia coli K-12 containing delta-lacU169 tolC::Tn10 gyrA D87Y mutant by microbroth dilution assay
Escherichia coli [2] = experiment: Antimicrobial activity against Escherichia coli K-12 containing delta-lacU169 tolC::Tn10 gyrA S83L mutant by microbroth dilution assay
Escherichia coli [3] = experiment: Antimicrobial activity against Escherichia coli K-12 containing delta-lacU169 tolC::Tn10 mutant by microbroth dilution assay
Escherichia coli [4] = experiment: Antimicrobial activity against Escherichia coli K-12 containing delta-lacU169 mutant by microbroth dilution assay

Q: With `O=c1c2c(n(C3CC3)c3cc(N4CCNCC4)c(F)cc13)COB2O` as the compound, how does the MIC (Staphylococcus aureus) read?
A: Its MIC is 128 µg/mL (≈ 373 µM).

Q: What about the MIC (Escherichia coli [1]) of the same compound?
A: Its MIC is 32 µg/mL (≈ 93.2 µM).

Q: What about the MIC (Escherichia coli [2]) of the same compound?
A: The MIC was 64 µg/mL (≈ 186 µM).

Q: And the MIC (Escherichia coli [3])?
A: The MIC was 16 µg/mL (≈ 46.6 µM).

Q: What about the MIC (Escherichia coli [4]) of the same compound?
A: The MIC was 128 µg/mL (≈ 373 µM).

Q: What does the source list for `CC(C)(C)OC(=O)N1CCN(c2cc3c(cc2F)c(=O)c2c(n3C3CC3)COB2O)CC1`?
A: MIC (Staphylococcus aureus): > 256 µg/mL; MIC (Escherichia coli [1]): > 256 µg/mL; MIC (Escherichia coli [2]): > 256 µg/mL; MIC (Escherichia coli [3]): > 256 µg/mL; MIC (Escherichia coli [4]): > 256 µg/mL

Q: `O=c1c(Br)c(CO)n(C2CC2)c2cc(N3CCNCC3)c(F)cc12` was tested. Which MIC (Staphylococcus aureus) did it give?
A: The MIC was over 256 µg/mL.

Q: What about the MIC (Escherichia coli [1]) of the same compound?
A: Its MIC is over 256 µg/mL.

Q: What about the MIC (Escherichia coli [2]) of the same compound?
A: The MIC was 256 µg/mL (≈ 646 µM).

Q: And the MIC (Escherichia coli [3])?
A: Its MIC is 128 µg/mL (≈ 323 µM).

Q: What about the MIC (Escherichia coli [4]) of the same compound?
A: The MIC was over 256 µg/mL.

Q: What does the source list for `O=c1cc(CO)n(C2CC2)c2cc(N3CCNCC3)c(F)cc12`?
A: MIC (Staphylococcus aureus): > 256 µg/mL; MIC (Escherichia coli [1]): > 256 µg/mL; MIC (Escherichia coli [2]): > 256 µg/mL; MIC (Escherichia coli [3]): > 256 µg/mL; MIC (Escherichia coli [4]): > 256 µg/mL
